Experimental data as given in ChEMBL document CHEMBL3603791, “Role of polyol moiety of amphotericin B in ion channel formation and sterol selectivity in bilayer membrane” (Bioorg Med Chem, 2015).
≈ marks a conversion by molar mass, not a printed value.

Key:
[1] = Toxicity in human erythrocytes assessed as induction of hemolysis incubated for 18 hrs; type: cell-based, Erythrocyte
Candida albicans = experiment: Antimicrobial activity against Candida albicans ATCC 36082 incubated for 2 days at 35 degC by CLSI protocol based method; type: functional; conditions: ATCC 36082, 48 h
[2] = Toxicity in human erythrocytes assessed as induction of hemolysis at 15 uM incubated for 18 hrs; type: cell-based, Erythrocyte; conditions: read-out: Activity
[3] = Induction of potassium influx in sterol-free and cholesterol and ergosterol-containing POPC liposomes at 32 uM by BCECF dye based fluorimetric assay; type: physicochemical

Row | MIC (Candida albicans) [µM] | Activity [3] | Compound | HC50 at 18 h [1] [µM] | hemolysis at 18 h, 15 µM [2] [%]
1 | 2 (≈ 1.88 µg/mL) | Not Active | C[C@@H]1[C@H](O)[C@@H](C)/C=C/C=C/C=C/C=C/C=C/C=C/C=C/[C@H](O[C@@H]2O[C@H](C)[C@@H](O)[C@H](N)[C@@H]2O)C[C@@H]2O[C@](O)(C[C@@H](O)C[C@@H](O)[C@H](O)C(=O)C[C@@H](O)C[C@@H](O)CC(=O)O[C@H]1C)C[C@H](O)[C@H]2C(=O)O | > 15 | 10
2 | 4 (≈ 3.76 µg/mL) | Not Active | C[C@@H]1[C@H](O)[C@@H](C)/C=C/C=C/C=C/C=C/C=C/C=C/C=C/[C@H](O[C@@H]2O[C@H](C)[C@@H](O)[C@H](N)[C@@H]2O)C[C@@H]2O[C@](O)(C[C@@H](O)C[C@@H](O)[C@H](O)[C@H](O)C[C@@H](O)C[C@@H](O)CC(=O)O[C@H]1C)C[C@H](O)[C@H]2C(=O)O | 5.4 | –
3 | 1 (≈ 0.94 µg/mL) | Not Active | C[C@@H]1[C@H](O)[C@@H](C)/C=C/C=C/C=C/C=C/C=C/C=C/C=C/[C@H](O[C@@H]2O[C@H](C)[C@@H](O)[C@H](N)[C@@H]2O)C[C@@H]2O[C@](O)(C[C@@H](O)C[C@@H](O)[C@H](O)[C@@H](O)C[C@@H](O)C[C@@H](O)CC(=O)O[C@H]1C)C[C@H](O)[C@H]2C(=O)O | 6.9 | –

Row | Compound | MIC (Candida albicans) [µM] | Activity [3] | HC50 at 18 h [1] [µM] | hemolysis at 18 h, 15 µM [2] [%]
4 | C[C@@H]1[C@H](O)[C@@H](C)/C=C/C=C/C=C/C=C/C=C/C=C/C=C/[C@H](O[C@@H]2O[C@H](C)[C@@H](O)[C@H](N)[C@@H]2O)C[C@@H]2O[C@](O)(C[C@@H](O)C[C@@H](O)[C@H](O)CC[C@@H](O)C[C@@H](O)CC(=O)O[C@H]1C)C[C@H](O)[C@H]2C(=O)O [AMPHOTERICIN B] | 0.25 (≈ 0.231 µg/mL) | Active | 3.2 | –
